Reference: patent US9133168B2, “Pyrimidine derivatives, preparation thereof, and pharmaceutical use thereof as akt(pkb) phosphorylation inhibitors” (SANOFI, priority 2010, dated 2015)

What follows are molecules tested on AKT protein phosphorylated on serine 473 (P-AKT-S473) in PC3 human prostate carcinoma cells (assay: pAKT expression in PC3 human prostate carcinoma cells, MSD Multi-spot Biomarker detection (Test A)). Settings: Homo sapiens, PC-3, PC3 cells, 1 to 2 h incubation, P-AKT-S473, absolute IC50, mean of two independent experiments.
Type: cell-based
Method in brief: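 Lysate pAKT-S473 measured by electrochemiluminescent sandwich immunoassay; inhibition versus cell-free background and DMSO-only wells, IC50 averaged over two experiments.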

| SMILES | IC50 |
| --- | --- |
| CS(=O)(=O)N1CCN(Cc2cccc3c2CCN3C(=O)Cc2nc(N3CCOCC3)cc(=O)[nH]2)CC1 [Example 17d, 2-[2-(4-{[4-(methylsulfonyl)piperazin-1-yl]methyl}-2,3-dihydro-1H-indol-1-yl)-2-oxoethyl]-6-(morpholin-4-yl)pyrimidin-4(3H)-one] | 259 nM |
| CC1Cc2c(Cl)cccc2N1C(=O)Cc1nc(N2CCOCC2)c(F)c(=O)[nH]1 (stereo not drawn) [Example 18a, 5-fluoro-2-[2-((+)-4-chloro-2-methyl-2,3-dihydroindol-1-yl)-2-oxoethyl]-6-morpholin-4-yl-3H-pyrimidin-4-one] | 38 nM |
| [2H]C1([2H])COCC([2H])([2H])N1c1cc(=O)[nH]c(CC(=O)N2CC(C)(C)c3ccccc32)n1 [Example 18b, 2-[2-(3,3-dimethyl-2,3-dihydroindol-1-yl)-2-oxoethyl]-6-morpholin(D4)-4-yl-3H-pyrimidin-4-one] | 91 nM |
| CN1CCN(Cc2cccc3c2CCN3C(=O)Cc2nc(N3CCOCC3)cc(=O)[nH]2)CC1 [Example 18d, 2-(2-{4-[(4-methylpiperazin-1-yl)methyl]-2,3-dihydro-1H-indol-1-yl}-2-oxoethyl)-6-(morpholin-4-yl)pyrimidin-4(3H)-one] | 272 nM |
| O=C(Cc1nc(N2CCOCC2)cc(=O)[nH]1)N1CCc2c(-c3ccccc3F)cccc21 [Example 19d, 2-{2-[4-(2-fluorophenyl)-2,3-dihydro-1H-indol-1-yl]-2-oxoethyl}-6-(morpholin-4-yl)pyrimidin-4(3H)-one] | 23 nM |
| CN1CCN(Cc2cccc3c2CCN3C(=O)Cc2nc(N3CCOCC3)cc(=O)n2C)CC1 [Example 20d, 3-methyl-2-(2-{4[(4-methylpiperazin-1-yl)methyl]-2,3-dihydro-1H-indol-1-yl}-2-oxoethyl)-6-(morpholin-4-yl)pyrimidin-4(3H)-one] | 520 nM |
| O=C(Cc1nc(N2CCOCC2)cc(=O)[nH]1)N1CC2(CCOCC2)c2ccccc21 [Example 21d, 6-(morpholin-4-yl)-2-[2-oxo-2-(2′,3′,5′,6′-tetrahydrospiro[indole-3,4′-pyran]-1(2H)-yl)ethyl]pyrimidin-4(3H)-one] | 155 nM |
| Cn1c(CC(=O)N2CC3(CCOCC3)c3ccccc32)nc(N2CCOCC2)cc1=O [Example 22d, 3-methyl-6-(morpholin-4-yl)-2-[2-oxo-2-(2′,3′,5′,6′-tetrahydrospiro[indole-3,4′-pyran]-1(2H)-yl)ethyl]pyrimidin-4(3H)-one] | 106 nM |
| Cc1cc(-c2cc(=O)[nH]c(CC(=O)N3CCc4c(F)cccc43)n2)ccn1 [Example 23b, 2-[2-(4-fluoro-2,3-dihydroindol-1-yl)-2-oxoethyl]-6-(2-methylpyridin-4-yl)-3H-pyrimidin-4-one] | 244 nM |
| Cn1c(CC(=O)N2CC3(CCNCC3)c3ccccc32)nc(N2CCOCC2)cc1=O [Example 23d, 3-methyl-6-(morpholin-4-yl)-2-[2-oxo-2-(spiro[indole-3,4′-piperidin]-1(2H)-yl)ethyl]pyrimidin-4(3H)-one] | 196 nM |
| O=C(Cc1nc(-c2ccnc(F)c2)cc(=O)[nH]1)N1CCc2c(F)cccc21 [Example 24b, 2-[2-(4-Fluoro-2,3-dihydroindol-1-yl)-2-oxoethyl]-6-(2-fluoropyridin-4-yl)-3H-pyrimidin-4-one] | 2860 nM |
| CC1Cc2cc(F)c(F)cc2N1C(=O)Cc1nc(N2CCOCC2)c(F)c(=O)n1C (stereo not drawn) [Example 26a, 5-fluoro-2-[2-((+)-5,6-difluoro-2-methyl-2,3-dihydroindol-1-yl)-2-oxoethyl]-3-methyl-6-morpholin-4-yl-3H-pyrimidin-4-one] | 211 nM |
| CN1CCN(c2cccc3c2CCN3C(=O)Cc2nc(N3CCOCC3)cc(=O)[nH]2)CC1 [Example 26d, 2-{2-[4-(4-methylpiperazin-1-yl)-2,3-dihydro-1H-indol-1-yl]-2-oxoethyl}-6-(morpholin-4-yl)pyrimidin-4(3H)-one] | 167 nM |
| CC1CN(c2cc(=O)[nH]c(CC(=O)N3CCc4c(Cl)cccc43)n2)CCO1 (centres unmarked) [Example 28b, 2-[2-(4-chloro-2,3-dihydroindol-1-yl)-2-oxoethyl]-6-(2-methylmorpholin-4-yl)-3H-pyrimidin-4-one] | 12 nM |
| CC1Cc2c(Br)cccc2N1C(=O)Cc1nc(N2CCOCC2)c(F)c(=O)n1C (stereo not drawn) [Example 30a, 5-fluoro-2-[2-((+)-4-bromo-2-methyl-2,3-dihydroindol-1-yl)-2-oxoethyl]-3-methyl-6-morpholin-4-yl-3H-pyrimidin-4-one] | 16 nM |
| C[C@H]1Cc2ccccc2N1C(=O)Cc1nc(N2CCOC(CF)C2)cc(=O)[nH]1 (stereo partly drawn) [Example 30b, 6-(2-fluoromethylmorpholin-4-yl)-2-[2-((S)-2-methyl-2,3-dihydroindol-1-yl)-2-oxoethyl]-3H-pyrimidin-4-one] | 44 nM |
| CC1Cc2ccc(F)cc2N1C(=O)Cc1nc(N2CCOCC2)c(F)c(=O)[nH]1 (stereo not drawn) [Example 32a, 5-fluoro-2-[2-((−)-6-fluoro-2-methyl-2,3-dihydroindol-1-yl)-2-oxoethyl]-6-morpholin-4-yl-3H-pyrimidin-4-one] | 40 nM |

Same assay, conditions: PC3 cells, 1 to 2 h incubation, P-AKT-S473, absolute IC50, mean of two independent experiments

| SMILES | IC50 |
| --- | --- |
| CC1Cc2c(Cl)cccc2N1C(=O)Cc1nc(N2CCOCC2)c(F)c(=O)[nH]1 (centres unmarked) [Example 19a] | 19 nM |
| C[C@H]1Cc2ccccc2N1C(=O)Cc1nc(N2CCOCC2)cc(=O)[nH]1 [Example 19b, (+)-2-[2-(2-methyl-2,3-dihydroindol-1-yl)-2-oxoethyl]-6-morpholin(D4)-4-yl-3H-pyrimidin-4-one] | 16 nM |
| CC1Cc2c(ccc(F)c2F)N1C(=O)Cc1nc(N2CCOCC2)c(F)c(=O)[nH]1 (stereo not drawn) [Example 20a, 2-[2-((−)-4,5-difluoro-2-methyl-2,3-dihydroindol-1-yl)-2-oxoethyl]-5-fluoro-6-morpholin-4-yl-3H-pyrimidin-4-one] | 2 nM |
| C[C@@H]1Cc2ccccc2N1C(=O)Cc1nc(N2CCOCC2)cc(=O)[nH]1 [Example 20b, (−)-2-[2-(2-methyl-2,3-dihydroindol-1-yl)-2-oxoethyl]-6-(2,2,6,6-morpholin-D4)-4-yl-3H-pyrimidin-4-one] | 5 nM |
| CC1Cc2c(ccc(F)c2F)N1C(=O)Cc1nc(N2CCOCC2)c(F)c(=O)[nH]1 (stereo not drawn) [Example 21a, 2-[2-((+)-4,5-difluoro-2-methyl-2,3-dihydroindol-1-yl)-2-oxoethyl]-5-fluoro-6-morpholin-4-yl-3H-pyrimidin-4-one] | 15 nM |
| CC1Cc2cc(F)c(F)cc2N1C(=O)Cc1nc(N2CCOCC2)cc(=O)[nH]1 (stereo not drawn) [Example 21c, 2-{2-[(+)-5,6-difluoro-2-methyl-2,3-dihydro-1H-indol-1-yl]-2-oxoethyl}-6-(morpholin-4-yl)pyrimidin-4(3H)-one] | 17 nM |
| CC1Cc2c(F)cccc2N1C(=O)Cc1nc(N2CCOCC2)c(F)c(=O)n1C (stereo not drawn) [Example 22a, 5-fluoro-2-[2-((+)-4-fluoro-2-methyl-2,3-dihydroindol-1-yl)-2-oxoethyl]-3-methyl-6-morpholin-4-yl-3H-pyrimidin-4-one] | 98 nM |
| CC1Cc2cc(F)c(F)cc2N1C(=O)Cc1nc(N2CCOCC2)cc(=O)[nH]1 (centres unmarked) [Example 22c] | 2 nM |
| CC1Cc2c(F)cccc2N1C(=O)Cc1nc(N2CCOCC2)c(F)c(=O)n1C (stereo not drawn) [Example 23a, 5-fluoro-2-[2-((−)-4-fluoro-2-methyl-2,3-dihydroindol-1-yl)-2-oxoethyl]-3-methyl-6-morpholin-4-yl-3H-pyrimidin-4-one] | 203 nM |
| CC1Cc2cc(F)c(F)cc2N1C(=O)Cc1nc(N2CCOCC2)cc(=O)n1C (stereo not drawn) [Example 23c, 2-{2-[(−)-5,6-difluoro-2-methyl-2,3-dihydro-1H-indol-1-yl]-2-oxoethyl}-3-methyl-6-(morpholin-4-yl)pyrimidin-4(3H)-one] | 32 nM |
| CC1Cc2c(ccc(F)c2F)N1C(=O)Cc1nc(N2CCOCC2)c(F)c(=O)n1C (stereo not drawn) [Example 24a, 5-fluoro-2-[2-((−)-4,5-difluoro-2-methyl-2,3-dihydroindol-1-yl)-2-oxoethyl]-3-methyl-6-morpholin-4-yl-3H-pyrimidin-4-one] | 310 nM |
| CC1Cc2cc(F)c(F)cc2N1C(=O)Cc1nc(N2CCOCC2)cc(=O)n1C (stereo not drawn) [Example 24c, 2-{2-[(+)-5,6-difluoro-2-methyl-2,3-dihydro-1H-indol-1-yl]-2-oxoethyl}-3-methyl-6-(morpholin-4-yl)pyrimidin-4(3H)-one] | 114 nM |
| CC1Cc2c(ccc(F)c2F)N1C(=O)Cc1nc(N2CCOCC2)c(F)c(=O)n1C (stereo not drawn) [Example 25a, 5-fluoro-2-[2-((+)-4,5-difluoro-2-methyl-2,3-dihydroindol-1-yl)-2-oxoethyl]-3-methyl-6-morpholin-4-yl-3H-pyrimidin-4-one] | 98 nM |
| CC1Cc2cc(F)c(F)cc2N1C(=O)Cc1nc(N2CCOCC2)c(F)c(=O)n1C (stereo not drawn) [Example 27a, 5-fluoro-2-[2-((−)-5,6-difluoro-2-methyl-2,3-dihydroindol-1-yl)-2-oxoethyl]-3-methyl-6-morpholin-4-yl-3H-pyrimidin-4-one] | 270 nM |
| CC1Cc2c(Cl)cccc2N1C(=O)Cc1nc(N2CCOCC2)c(F)c(=O)n1C (stereo not drawn) [Example 28a, 5-fluoro-2-[2-((+)-4-chloro-2-methyl-2,3-dihydroindol-1-yl)-2-oxoethyl]-3-methyl-6-morpholin-4-yl-3H-pyrimidin-4-one] | 476 nM |
| CC1Cc2c(Cl)cccc2N1C(=O)Cc1nc(N2CCOCC2)c(F)c(=O)n1C (stereo not drawn) [Example 29a, 5-fluoro-2-[2-((−)-4-chloro-2-methyl-2,3-dihydroindol-1-yl)-2-oxoethyl]-3-methyl-6-morpholin-4-yl-3H-pyrimidin-4-one] | 20 nM |
| CC1Cc2c(Br)cccc2N1C(=O)Cc1nc(N2CCOCC2)c(F)c(=O)n1C (stereo not drawn) [Example 31a, 5-fluoro-2-[2-((−)-4-bromo-2-methyl-2,3-dihydroindol-1-yl)-2-oxoethyl]-3-methyl-6-morpholin-4-yl-3H-pyrimidin-4-one] | 15 nM |
| CC1Cc2ccc(F)cc2N1C(=O)Cc1nc(N2CCOCC2)c(F)c(=O)[nH]1 (stereo not drawn) [Example 33a, 5-Fluoro-2-[2-((+)-6-fluoro-2-methyl-2,3-dihydroindol-1-yl)-2-oxoethyl]-6-morpholin-4-yl-3H-pyrimidin-4-one] | 77 nM |
